Experimental data as given in US20240041830A1, “CIRCULATING BIOMARKERS OF RESPONSE TO PD-1/PD-L1 BLOCKADE AND GSK-3 INHIBITION” (Brown University, priority 2022, published 2024).

Columns and labels:
[1] = system: KM12C; assay: microarray analysis; type: cell-based, human; details: 1 μM, 24 hours, vs untreated
[2] = system: NK-92; assay: microarray analysis; type: cell-based, human; details: 1 μM, 24 hours, vs untreated
Protocol: Microarrays. A total of 0.5×10^6 tumor cells (HCT-116, HT-29, KM12C) were plated in a 6-well plate and allowed to adhere overnight before 24-hour treatment, as indicated. Then, 1×10^6 immune cells (NK92, TALL-104) were plated and treated with elraglusib as indicated for twenty-four h. RNA was isolated from cell pellets in batches of six using a RNeasy Plus Mini Kit (Cat #74134, Qiagen, Hilden, Germany). Acceptable RNA concentration and quality were verified with Nanodrop and Bioanalyzer measurements. GeneChip™ Human Transcriptome Array 2.0 assays were conducted according to manufacturer instructions in two batches using randomized samples to limit batch effects (Cat #902162, Applied Biosystems, Waltham, MA, USA). Applied Biosystems Transcriptomic Analysis Console (TAC) software (RRID: SCR_016519) was used to calculate fold changes in gene expression relative to the untreated control cells. Values were considered statistically significant for p values<0.05.
Microarray analysis was used to obtain insights into gene expression changes in immune cell lines post-GSK-3 inhibition with elraglusib. Immune cell lines (TALL-104, NK-92) were treated with elraglusib at IC50 concentrations or DMSO as vehicle control for twenty-four hours and treated versus untreated samples were compared in triplicate using microarray analysis. FIG. 11. Results were calculated using a fold-change (FC) cutoff of >1.5, <−1.5, and a minimum p-value of <0.05. NK-92 cells had sixty-one differentially expressed genes post-treatment (FIG. 3D). the inventors observed an increase in genes that promote immune cell proliferation (TNFSF14, RAB38) and control immune cell adhesion and migration (WNK1) post-elraglusib treatment.
TABLE 11 description. NK-92 immune cell microarray analysis. NK-92 immune cells were treated with 1 μM elraglusib for 24 hours and treated versus untreated control samples were compared in triplicate via microarray analysis (N=3).

[3] = system: 93T449 liposarcoma; assay: Luminex cytokine profiling; type: cell-based; details: 0.5 μM, twenty-four hours
Protocol: (§1) Human cytokine profiling. Human cell line culture supernatants were analyzed using an R&D systems Human Premixed Multi-Analyte Kit (R&D Systems, Inc., Minneapolis, MN, USA) and a Luminex 200 (RRID: SCR_018025) Instrument (LX200-XPON-RUO, Luminex Corporation, Austin, TX, USA) according to the manufacturer's instructions. Sample levels of TNF-α, 4-1BB/TNFRSF9/CD137, IL-8/CXCL8, Ferritin, IFN-β, IL-10, CCL2/JE/MCP-1, VEGF, CXCL13/BLC/BCA-1, IFN-γ, CCL20/MIP-3 α, CCL3/MIP-1 α, CCL22/MDC, CCL4/MIP-1 β, Fas Ligand/TNFSF6, IL-17/1L-17A, IL-2, BAFF/BLyS/TNFSF13B, GM-CSF, CXCLS/ENA-78, TRANCE/TNFSF11/RANK L, CXCL9/MIG, G-CSF, IFN-γ R1/CD119, VEGFR3/Flt-4, C-Reactive Protein/CRP, CXCL11/I-TAC, IL-21, CXCL14/BRAK, IL-6, Fas/TNFRSF6/CD95, TRAIL R3/TNFRSF10C, IL-4, CCL5/RANTES, PD-L1/137-H1, CCL7/MCP-3/MARC, Chitinase 3-like 1, CXCL10/IP-10/CRG-2, IL-1 μ/IL-1F2, IL-7, Prolactin, CCL8/MCP-2, TRAIL R2/TNFRSF10B, M-CSF, IL-15, Granzyme B, IFN-α, TREM-1, IL-12/1L-23 p40, TRAIL/TNFSF10, CCL11/Eotaxin, and 1L-18/1L-1F4. Quantitative analysis with 6 standards and a minimum of 50 counts per bead region was used with the Luminex to generate analyte values reported as picograms/milliliter (pg/mL). Sample concentrations less than the lower limit of detection for each particular analyte were recoded as the lower limit value divided by 10. Sample concentrations above the upper limit of detection for a particular analyte were recoded as the upper limit of detection.
(§2) Saos-2 osteosarcoma and 93T449 liposarcoma cell lines were pretreated at IC50 with elraglusib. The cells were harvested for Western blot analysis after 48 hours of treatment. Both cancer cell lines as well as TALL-104 T-cells and NK-92 NK cells were treated with 0.5 μM elraglusib for twenty-four hours and harvested for Luminex cytokine profiling.

[4] = system: Saos-2 osteosarcoma; assay: Luminex cytokine profiling; type: cell-based; details: 0.5 μM, twenty-four hours
Protocol: as §1, §2

[5] = Luminex 200 analysis of patient plasma (NCT03678883); type: in vivo, human; details: eight hours and twenty-four hours after treatment

Q: For `Cn1cc(C2=C(c3coc4ccc(F)cc34)C(=O)NC2=O)c2cc3c(cc21)OCO3` [elraglusib], which “AGGF1 Fold Change” value [1] is on record?
A: −1.6

Q: And the “BARD1 Fold Change” value [1]?
A: −3.03

Q: What about the “BCL9 Fold Change” value [1] of the same molecule?
A: −1.55

Q: What about the “BIK Fold Change” value [1] of the same molecule?
A: 1.51

Q: What about the “BRAF Fold Change” value [1] of the same molecule?
A: −2.05

Q: What about the “BRCA1 Fold Change” value [1] of the same molecule?
A: −1.71

Q: And the “BRD3 Fold Change” value [1]?
A: −1.58

Q: What about the “CCND2 Fold Change” value [1] of the same molecule?
A: −1.58

Q: What about the “CCNE1 Fold Change” value [1] of the same molecule?
A: −1.57

Q: What about the “CCNE2 Fold Change” value [1] of the same molecule?
A: −2.64

Q: What about the “CD109 Fold Change” value [1] of the same molecule?
A: −2.09

Q: What about the “CDC25C Fold Change” value [1] of the same molecule?
A: −1.55

Q: And the “CDCA2 Fold Change” value [1]?
A: −1.51

Q: What about the “CDK1 Fold Change” value [1] of the same molecule?
A: −2

Q: And the “CXCL1 Fold Change” value [1]?
A: −1.53

Q: What about the “E2F7 Fold Change” value [1] of the same molecule?
A: −2.5

Q: And the “E2F8 Fold Change” value [1]?
A: −3.16

Q: What about the “ERBB2IP Fold Change” value [1] of the same molecule?
A: −1.88

Q: And the “FZD3 Fold Change” value [1]?
A: −1.76

Q: And the “GDF15 Fold Change” value [1]?
A: −2.29

Q: And the “GZMA Fold Change” value [1]?
A: 1.53

Q: And the “IGF2BP2 Fold Change” value [1]?
A: −1.51

Q: What about the “IL6ST Fold Change” value [1] of the same molecule?
A: −1.88

Q: And the “IL27RA Fold Change” value [1]?
A: −1.72

Q: And the “IL32 Fold Change” value [1]?
A: 1.55

Q: What about the “IRF2BP2 Fold Change” value [1] of the same molecule?
A: −1.6

Q: What about the “JMY Fold Change” value [1] of the same molecule?
A: −2.03

Q: What about the “LTBP1 Fold Change” value [1] of the same molecule?
A: −2.24

Q: And the “MAP2K6 Fold Change” value [1]?
A: −3.66

Q: What about the “MAP3K1 Fold Change” value [1] of the same molecule?
A: −1.92

Q: What about the “MDM2 Fold Change” value [1] of the same molecule?
A: −1.61

Q: And the “MET Fold Change” value [1]?
A: −1.79

Q: What about the “MKI67 Fold Change” value [1] of the same molecule?
A: −1.53

Q: What about the “MTBP Fold Change” value [1] of the same molecule?
A: −1.58

Q: And the “MTDH Fold Change” value [1]?
A: −1.74

Q: And the “NFKBIA Fold Change” value [1]?
A: −2.51

Q: What about the “NRP1 Fold Change” value [1] of the same molecule?
A: −1.88

Q: What about the “TAB3 Fold Change” value [1] of the same molecule?
A: −1.63

Q: What about the “TGFBR2 Fold Change” value [1] of the same molecule?
A: −2.11

Q: What about the “TGFBR3 Fold Change” value [1] of the same molecule?
A: −3.72

Q: And the “TLR3 Fold Change” value [1]?
A: −2.25

Q: What about the “TNFRSF1B Fold Change” value [1] of the same molecule?
A: −1.56

Q: And the “TNFRSF10A Fold Change” value [1]?
A: −1.54

Q: And the “TNFRSF11A Fold Change” value [1]?
A: −1.64

Q: What about the “TNFRSF12A Fold Change” value [1] of the same molecule?
A: 1.53

Q: What about the “TNIK Fold Change” value [1] of the same molecule?
A: −1.59

Q: And the “TRAF5 Fold Change” value [1]?
A: −1.52

Q: What about the “TRAF6 Fold Change” value [1] of the same molecule?
A: −1.57

Q: And the “TRAIP Fold Change” value [1]?
A: 1.53

Q: And the “TRIB1 Fold Change” value [1]?
A: −2.37

Q: And the “ITGB8 Fold Change” value [2]?
A: −1.53

Q: What about the “MIR186 Fold Change” value [2] of the same molecule?
A: −1.52

Q: And the “NAP1L1 Fold Change” value [2]?
A: −1.51

Q: What about the “RAB38 Fold Change” value [2] of the same molecule?
A: 1.65

Q: And the “RNY5 Fold Change” value [2]?
A: 3.32

Q: And the “S100A12 Fold Change” value [2]?
A: −1.78

Q: What about the “TNFSF14 Fold Change” value [2] of the same molecule?
A: 1.5

Q: And the “WNK1 Fold Change” value [2]?
A: 1.5

Q: And the TGF-α [3]?
A: increase

Q: What about the TGF-α [4] of the same molecule?
A: increase

Q: And the IL-6 ([4]; only Saos-2)?
A: increase

Q: What about the “plasma cytokines, chemokines, growth factors vs baseline” value [5] of the same molecule?
A: upregulated
